The values below come from PMC2778353, “Toxicity of Xanthene Food Dyes by Inhibition of Human Drug-Metabolizing Enzymes in a Noncompetitive Manner” (Journal of Environmental and Public Health, 2009).

Read-outs that look alike come from different tables or passages of the source.

For one series, the target named is T1, CYP3A4 (Homo sapiens, UniProt P08684).
T1 construct: pooled human liver microsomes (HLMs), purchased from Gentest; tissue Gentest (Woburn, MA, USA); host or cells: pooled human liver microsomes
The series can be described thus: Inhibition of CYP3A4 activity in pooled human liver microsomes (7-benzoyloxy-4-(trifluoromethyl)-coumarin substrate). It is filed as biochemical. Particulars: for IC50: pooled human liver microsomes. As for the experimental part: (§1) These enzymes were stored at −80°C. Superoxide dismutase (SOD) and catalase are products of Sigma.
CYP3A4 is a major enzyme among phase I drug-metabolizing enzymes and reacts with half of all drugs. To determine the influence of CYP3A4 activity by food dyes, the color of dyes influencing the fluorometric measurement over 30 μM dye concentration was measured. This background was subtracted from the measurement of color pigments.
In general terms: Liver microsomes are vesicles of endoplasmic reticulum, rich in cytochrome P450 enzymes.

The next series deals with P-glycoprotein (Homo sapiens, UniProt P08183). The series can be described thus: in vitro. As to the method:
as §1

Series [1] addresses T2, UGT1A6 (Homo sapiens, UniProt P19224).
T2 sequence (P19224 27-532): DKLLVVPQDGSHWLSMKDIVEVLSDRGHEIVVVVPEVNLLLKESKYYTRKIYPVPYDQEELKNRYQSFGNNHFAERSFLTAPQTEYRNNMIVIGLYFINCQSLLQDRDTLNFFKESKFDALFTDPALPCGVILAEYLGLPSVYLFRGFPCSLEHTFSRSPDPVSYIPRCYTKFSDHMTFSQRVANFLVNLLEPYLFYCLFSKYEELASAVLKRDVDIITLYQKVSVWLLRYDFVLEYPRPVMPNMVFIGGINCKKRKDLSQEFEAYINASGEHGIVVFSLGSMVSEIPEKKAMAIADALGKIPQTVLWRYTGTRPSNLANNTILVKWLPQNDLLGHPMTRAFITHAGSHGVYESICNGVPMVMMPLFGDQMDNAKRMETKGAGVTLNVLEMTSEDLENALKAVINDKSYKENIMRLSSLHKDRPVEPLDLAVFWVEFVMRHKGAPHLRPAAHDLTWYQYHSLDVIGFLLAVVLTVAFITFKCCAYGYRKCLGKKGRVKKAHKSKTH
The experiment in a line: Inhibition of UGT1A6 activity (glucuronidation of p-nitrophenol) in pooled human liver microsomes. Particulars: for Difference of UGT1A6 activity between dark and light: 0.3 mM p-NP.
Experimental: (§2) The enzyme source to measure CYP2A6, CYP3A4, and UGT1A6 activities was pooled human liver microsomes (HLMs), purchased from Gentest (Woburn, MA, USA). […] These enzymes were stored at −80°C.
(§3) The microassay method of UGT activity in this study was carried out according to previous reports [5, 51]. […] In order to investigate the role of reactive oxygen species on the inhibition of UGT1A6 by dyes, we studied the effect of SOD and catalase.
(§4) The inhibition of UGT1A6 activity with p-nitrophenol [5] and of UGT2B7 with androsterone by dyes was studied.

A further series addresses T3, UGT2B7 (Homo sapiens, UniProt P16662).
T3 construct: purchased Gentest; host or cells: Sf9 cells, baculovirus expression system
T3 sequence (P16662 24-529): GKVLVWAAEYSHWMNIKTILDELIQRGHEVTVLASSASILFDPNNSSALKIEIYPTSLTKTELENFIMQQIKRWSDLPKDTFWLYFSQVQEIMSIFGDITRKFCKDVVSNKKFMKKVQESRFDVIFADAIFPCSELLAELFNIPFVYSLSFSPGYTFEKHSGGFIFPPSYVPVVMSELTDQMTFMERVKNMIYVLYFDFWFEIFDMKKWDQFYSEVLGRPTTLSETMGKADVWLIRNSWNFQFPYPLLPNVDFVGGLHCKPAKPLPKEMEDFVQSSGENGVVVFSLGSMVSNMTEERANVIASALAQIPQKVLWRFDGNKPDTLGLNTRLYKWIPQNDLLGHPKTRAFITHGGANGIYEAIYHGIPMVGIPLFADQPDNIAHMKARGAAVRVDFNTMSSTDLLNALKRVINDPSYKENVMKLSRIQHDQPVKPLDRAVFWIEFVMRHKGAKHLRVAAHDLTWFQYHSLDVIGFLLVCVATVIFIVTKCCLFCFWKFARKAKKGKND
The series can be described thus: Inhibition of UGT2B7 activity (glucuronidation of androsterone), Sf9 cell membrane. It is filed as biochemical. As for the experimental part: as §1

Series [2] has as its target P-glycoprotein (ATPase activity) (Homo sapiens, UniProt P08183). The experiment in a line: in vitro. Particulars: human. As to the method: as §1
Series [3] addresses T2, UGT1A6. The experiment in a line: in vitro.
Experimental: as §2, §3, §4
Where [4] appears, read: read-out: IC50 value P-glycoprotein, ATPase activity of P-gp membrane.
[5] abbreviates: human, pooled human liver microsomes, probe p-nitrophenol.
The mark [6] stands for this setting: human, probe 7-benzoyloxy-4-(trifluoromethyl)-coumarin.
Where [7] appears, read: glucuronidation inhibition by RB.

Sequence of P-glycoprotein (P08183 whole entry): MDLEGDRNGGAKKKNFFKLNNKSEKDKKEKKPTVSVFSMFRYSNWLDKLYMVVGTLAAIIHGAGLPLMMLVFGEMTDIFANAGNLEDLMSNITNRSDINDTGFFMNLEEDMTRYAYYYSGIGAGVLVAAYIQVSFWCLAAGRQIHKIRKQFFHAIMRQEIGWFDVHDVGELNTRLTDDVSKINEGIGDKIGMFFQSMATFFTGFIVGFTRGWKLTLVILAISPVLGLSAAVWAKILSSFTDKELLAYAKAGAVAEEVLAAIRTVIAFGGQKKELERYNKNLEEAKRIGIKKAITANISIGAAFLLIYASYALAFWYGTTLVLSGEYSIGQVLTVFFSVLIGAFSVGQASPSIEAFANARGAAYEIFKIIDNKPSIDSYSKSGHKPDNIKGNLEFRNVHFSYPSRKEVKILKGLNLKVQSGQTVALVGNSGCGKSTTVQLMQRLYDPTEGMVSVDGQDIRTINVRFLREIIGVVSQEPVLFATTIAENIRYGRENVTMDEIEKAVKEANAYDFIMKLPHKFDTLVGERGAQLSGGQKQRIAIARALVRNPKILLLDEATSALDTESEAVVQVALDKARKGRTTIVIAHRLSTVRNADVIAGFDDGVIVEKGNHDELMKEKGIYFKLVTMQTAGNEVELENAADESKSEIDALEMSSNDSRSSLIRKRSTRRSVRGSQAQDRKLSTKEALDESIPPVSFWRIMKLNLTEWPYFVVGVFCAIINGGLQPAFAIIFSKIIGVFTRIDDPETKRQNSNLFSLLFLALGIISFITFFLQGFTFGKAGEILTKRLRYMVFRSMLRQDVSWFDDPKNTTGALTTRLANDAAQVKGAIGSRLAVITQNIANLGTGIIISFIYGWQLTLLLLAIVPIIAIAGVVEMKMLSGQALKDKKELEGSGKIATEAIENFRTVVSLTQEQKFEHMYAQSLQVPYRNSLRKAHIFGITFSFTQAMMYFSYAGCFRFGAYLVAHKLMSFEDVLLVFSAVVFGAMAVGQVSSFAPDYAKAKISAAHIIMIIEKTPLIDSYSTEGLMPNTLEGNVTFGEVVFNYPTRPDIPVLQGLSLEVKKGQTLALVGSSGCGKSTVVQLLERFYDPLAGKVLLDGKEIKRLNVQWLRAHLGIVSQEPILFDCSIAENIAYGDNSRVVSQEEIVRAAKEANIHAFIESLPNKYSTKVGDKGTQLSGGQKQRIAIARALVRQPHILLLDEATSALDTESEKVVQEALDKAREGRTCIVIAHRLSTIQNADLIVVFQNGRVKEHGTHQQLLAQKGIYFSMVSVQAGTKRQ
T1 sequence (P08684 whole entry): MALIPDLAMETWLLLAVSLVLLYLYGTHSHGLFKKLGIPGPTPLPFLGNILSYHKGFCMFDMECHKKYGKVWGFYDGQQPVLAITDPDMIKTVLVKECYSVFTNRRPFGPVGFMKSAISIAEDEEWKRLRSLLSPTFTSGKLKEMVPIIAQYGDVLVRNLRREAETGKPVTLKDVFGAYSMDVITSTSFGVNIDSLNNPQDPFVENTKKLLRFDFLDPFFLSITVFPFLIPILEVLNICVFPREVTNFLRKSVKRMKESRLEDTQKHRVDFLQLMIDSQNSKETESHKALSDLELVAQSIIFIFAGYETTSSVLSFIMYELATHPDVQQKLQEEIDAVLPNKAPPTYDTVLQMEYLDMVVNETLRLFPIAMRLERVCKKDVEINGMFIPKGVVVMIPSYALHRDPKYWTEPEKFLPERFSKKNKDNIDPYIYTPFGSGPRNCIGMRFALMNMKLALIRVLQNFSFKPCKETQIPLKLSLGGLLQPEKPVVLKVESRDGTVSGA
Sequence of P-glycoprotein (ATPase activity) (P08183 whole entry): as the sequence (P08183 whole entry) above

With `COc1cc(S(=O)(=O)[O-])c(C)cc1N=Nc1c(O)ccc2cc(S(=O)(=O)[O-])ccc12.[Na+].[Na+]` [Allura red (AL), allura red], the IC50 against CYP3A4 and on P-glycoprotein (setting [4]) was over 1000 µM in each case. For the same molecule, the “Inhibition of UGT1A6 activity (in words)” value on UGT1A6 [1] is “insignificant inhibition”.

Consider `O=S(=O)([O-])c1ccc2c(N=Nc3ccc(S(=O)(=O)[O-])c4ccccc34)c(O)c(S(=O)(=O)[O-])cc2c1.[Na+].[Na+].[Na+]` [Amaranth (AM), amaranth], for which the “Inhibition of CYP3A4 (in words)” value at CYP3A4 is on record as “noninhibition”. Also, the IC50 at CYP3A4 and against P-glycoprotein was over 1000 µM in each case. Besides, the “Inhibition of UGT1A6 activity (in words)” value on UGT1A6 [1] was “insignificant inhibition”.

Regarding `CCN(Cc1cccc(S(=O)(=O)[O-])c1)c1ccc(C(=C2C=CC(=[N+](CC)Cc3cccc(S(=O)(=O)[O-])c3)C=C2)c2ccccc2S(=O)(=O)[O-])cc1.[Na+].[Na+]` [Brilliant blue FCF (BB), brilliant blue FCF], the IC50 against CYP3A4 and on P-glycoprotein was over 1000 µM in each case. Moreover, the “Inhibition of UGT1A6 activity (in words)” value on UGT1A6 [1] is listed as “insignificant inhibition”.

Regarding `O=C(O)c1cc(N=C=S)ccc1-c1c2cc(Br)c(=O)c(Br)c-2oc2c(Br)c(O)c(Br)cc12` [Dye E5ic, Eosin-5-isothiocyanate, reference compound], the IC50 (as a rule, the concentration at which inhibition is half-maximal) against UGT1A6 [1] (setting [5]) came out at 70 µM.

On to `O=C1OC2(c3ccccc31)c1cc(I)c(O)c(I)c1Oc1c2cc(I)c(O)c1I` [Erythrosine B (ET), erythrosine], for which, at CYP3A4 (30 μM dye), the “Inhibition of CYP3A4 at 30 μM” value is “completely inhibited”. On P-glycoprotein, the IC50 came out at 15.6 µM and the “Inhibition of P-gp (in words)” value is on record as “well inhibited”. At UGT2B7, the “Type of inhibition of UGT2B7” value was “non-competitive”. Further, the “Inhibition of UGT2B7 (in words)” value at UGT2B7 (androsterone glucuronidation) is reported as “inhibited”. At UGT1A6 [1], the IC50 amounted to 50 µM, the “Inhibition of UGT1A6 activity (in words)” value is recorded as “greatest inhibition”, the “Substrate activity for UGT1A6” value is reported as “no substrate activity” and the “Type of inhibition of UGT1A6 (Lineweaver-Burk plots)” value (“Type of inhibition of UGT1A6” for short) is “non-competitive”. Further, the midpoint of inhibition against UGT1A6 [1] (setting [5]), the IC50, lay at 70 µM.

Turning to `O=C1/C(=C2\Nc3ccc(S(=O)(=O)[O-])cc3C2=O)Nc2ccc(S(=O)(=O)[O-])cc21.[Na+].[Na+]` [Indigo carmine (ID), indigo carmine], the IC50 at CYP3A4 and at P-glycoprotein was over 1000 µM each time. For the same molecule, the “Inhibition of UGT1A6 activity (in words)” value at UGT1A6 [1] is “no inhibition”.

For `[N-]=[N+]=[N-].[Na+]` [NaN3, reference compound], the “Prevention of RB inhibition of UGT1A6 by 1O2 quencher” value (“Prevention of RB inhibition of UGT1A6” for short) on UGT1A6 [1] is recorded as “significantly prevented”. Moreover, the “Inhibition of glucuronidation of p-NP by UGT1A6 by quencher itself” value (from here on “Inhibition of glucuronidation of p-NP”) on UGT1A6 [1] (1 to 20 mM) is “no inhibition”.

`O=S(=O)(O)c1cc(S(=O)(=O)O)c2c(N=Nc3ccc(S(=O)(=O)O)c4ccccc34)c(O)ccc2c1` [New coccine (NC), new coccine]: the IC50 is over 1000 µM against CYP3A4; over 1000 µM at P-glycoprotein (setting [4]); over 1000 µM at UGT1A6 [1] (read-out: IC50 value UGT1A6, pooled human liver microsomes, p-nitrophenol glucuronidation).

As for `O=C(O)c1c(Cl)c(Cl)c(Cl)c(Cl)c1-c1c2cc(Br)c(=O)c(Br)c-2oc2c(Br)c(O)c(Br)cc12` [Phloxine (PL), phloxine], the “Inhibition of CYP3A4 (in words)” value on CYP3A4 is “showed inhibition”. Besides, the IC50 is 5.6 µM on CYP3A4 (setting [6]), 24.5 µM in series [2] and 40 µM against UGT1A6 [3]. Besides, the “Inhibition of P-gp (in words)” value at P-glycoprotein is on record as “well inhibited”. Also, at UGT2B7, the “Type of inhibition of UGT2B7” value is “non-competitive”. Further, the “Type of inhibition of UGT1A6” value on UGT1A6 [1] is on record as “non-competitive”.

Consider `O=C(O)c1c(Cl)c(Cl)c(Cl)c(Cl)c1-c1c2cc(I)c(=O)c(I)c-2oc2c(I)c(O)c(I)cc12` [Rose Bengal (RB), rose bengal], for which, at CYP3A4, the “Inhibition of CYP3A4 (in words)” value was “showed inhibition”. Besides, the values for the IC50 (at CYP3A4 (setting [6]); in series [2]; against UGT1A6 [1] (setting [5])) were 21.2 µM, 11.7 µM and 15 µM, respectively. Besides, on P-glycoprotein, the “Inhibition of P-gp (in words)” value was “well inhibited”. The “Type of inhibition of UGT2B7” value on UGT2B7 is listed as “non-competitive”. Moreover, at UGT1A6 [1], the “Type of inhibition of UGT1A6” value was “non-competitive”. Also, the “Difference of UGT1A6 activity between dark and light” value on UGT1A6 [1] (0.1 mM RB) is “could not find a significant difference”; at UGT1A6 [1] (0.01, 0.02, and 0.05 mM RB) it was “significant difference”. Further, the “UGT1A6 activity in D2O relative to H2O in presence of RB” value at UGT1A6 [1] (D2O solution versus water) was “approximately half”.

`O=S(=O)([O-])c1ccc(N=Nc2c(O)ccc3cc(S(=O)(=O)[O-])ccc23)cc1.[Na+].[Na+]` [Sunset yellow FCF (SY), sunset yellow FCF]: the IC50 against CYP3A4 and on P-glycoprotein (setting [4]) was over 1000 µM throughout. Besides, the “Inhibition of UGT1A6 activity (in words)” value at UGT1A6 [1] is on record as “no inhibition”.

Consider `O=C([O-])C1=NN(c2ccc(S(=O)(=O)[O-])cc2)C(=O)C1N=Nc1ccc(S(=O)(=O)[O-])cc1.[Na+].[Na+].[Na+]` (stereo not drawn) [Tartrazine (TT), tartrazine], for which the IC50 at CYP3A4 and at P-glycoprotein was over 1000 µM each time. Besides, the “Inhibition of UGT1A6 activity (in words)” value on UGT1A6 [1] is “no inhibition”.

Turning to `O=C(O)c1ccccc1-c1c2ccc(=O)cc-2oc2cc(O)ccc12` [Uranine, reference compound], at UGT1A6 [1], the “Inhibition of UGT1A6 activity (in words)” value is on record as “did not inhibit”. The same molecule came in with an IC50 against UGT1A6 [1] (setting [5]) of over 1000 µM.

Turning to `c1ccc2c(c1)Cc1ccccc1O2` [Xanthene], at UGT1A6 [1], the IC50 is over 1000 µM and the “Inhibition of UGT1A6 activity (in words)” value is recorded as “did not inhibit”.

With `N[C@@H](Cc1c[nH]cn1)C(=O)O` [histidine, reference compound], at UGT1A6 [1] (1 to 20 mM), the “Inhibition of glucuronidation of p-NP” value is “no inhibition”. Moreover, on UGT1A6 [1] (setting [7]), the “Prevention of RB inhibition of UGT1A6” value is “significantly prevented”.

Regarding `CC(=O)N(CC(O)CN(C(C)=O)c1c(I)c(C(=O)NCC(O)CO)c(I)c(C(=O)NCC(O)CO)c1I)c1c(I)c(C(=O)NCC(O)CO)c(I)c(C(=O)NCC(O)CO)c1I` (stereo not drawn) [iodixanol, reference compound], the “Inhibition of UGT1A6 activity (in words)” value at UGT1A6 [1] was “no inhibition”.

`CNC(=O)c1c(I)c(NC(C)=O)c(I)c(C(=O)O)c1I.CNC[C@H](O)[C@@H](O)[C@H](O)[C@H](O)CO` [meglumine iotalamate, reference compound]: the “Inhibition of UGT1A6 activity (in words)” value on UGT1A6 [1] was “no inhibition”.

As for `CCN(CC)c1ccc2c(-c3ccccc3C(=O)O)c3ccc(=[N+](CC)CC)cc-3oc2c1` [rhodamine, reference compound], on UGT1A6 [1], the IC50 is over 1000 µM and the “Inhibition of UGT1A6 activity (in words)” value is listed as “did not inhibit”.

With `CC(=O)Nc1c(I)c(NC(C)=O)c(I)c(C(=O)[O-])c1I.[Na+]` [sodium diatrizoate, reference compound], the “Inhibition of UGT1A6 activity (in words)” value at UGT1A6 [1] is recorded as “no inhibition”.

Turning to `CC1=C(/C=C/C(C)=C/C=C/C(C)=C/C=C/C=C(C)/C=C/C=C(C)/C=C/C2=C(C)CCCC2(C)C)C(C)(C)CCC1` [β-carotene, reference compound], the “Inhibition of glucuronidation of p-NP” value on UGT1A6 [1] (0.2–0.5 mM) is on record as “no inhibition”. At UGT1A6 [1] (setting [7]), the “Prevention of RB inhibition of UGT1A6” value is on record as “did not”.

On to catalase, for which, on UGT1A6 [1] (added to the mixture of UGT1A6 inhibition by ET), the “Prevention of ET inhibition of UGT1A6” value is on record as “no prevention”.
